Results on two molecules are retold here after patent US20130245110A1, “USE FOR CANNABINOIDS” (priority 2008, published 2013).

“And” between values parts separate entries of the source, which are not always exact repeats. Identical values can stand only once.

Assay [1] concerns C57B1/Ks db/db mouse. Put plainly: Glycaemic control (blood glucose, oral glucose tolerance, 24 h glucose profile). Format: in vivo. Particulars: db/db mice. The source says: Inflammation is also a feature of type II diabetic animals and man. […] However, as a result of the C57B1/Ks genetic background rather than the C57B1/6, the mice show loss of pancreatic function from around 6/7 weeks of age and by 10 weeks show frank diabetes.
• Daily: Food and water intake • Twice weekly: Body weight and glucose • Day 1: Weigh mice, dose compounds, provide measured amount of food, provide measured amount of water • Days 2, 5 and 8: Fed blood glucose concentration • Day 9: Oral glucose tolerance • Days 12 and 16: Fed blood glucose concentration • Day 19: 24 hr glycaemic assay • Days 22, 26 and 29: Fed blood glucose concentration • Day 33: 24 hr glycaemic assay • Day 38: Fed blood glucose concentration • Day 39: Body composition by Dexascan in anaesthetised mice • Day 41: Termination. Take blood samples for glucose, free fatty acids, triglycerides, cholesterol, insulin and HbA

In assay [2] the test system is aorta. The assay is described as follows: Chronic treatment of rats, vascular responses in isolated arteries. Format: in vivo, rat. Conditions: aorta of rats treated for 2 weeks.
Assay [3] deals with dietary induced obese (DIO) mouse model. The assay is described as follows: Thermic response to food (energy expenditure after Complan meal), chronic dosing study. The format is in vivo. More on the design: Thermic response to food: unit not given here. Particulars: for Thermic response to food: listed as pure THCV. The text has this:
Once the acute studies were complete the mice were grouped in two groups of five mice for the chronic dosing study. Dosing was daily by oral gavage at 09:00-10:00.
Energy expenditure consists of basal metabolic rate, exercise-induced energy expenditure, and non-exercise thermogenesis. The latter is the most likely area to be affected by anti-obesity agents. Non-exercise thermogenesis includes the thermic response to food, which in rodents can be measured by examining energy expenditure in response to a meal. This was measured after an oral dose of complan (see methods).

As to `C=C(C)[C@@H]1CCC(C)=C[C@H]1c1c(O)cc(CCCCC)cc1O` [CBD, cannabidiol], the “Glycaemic control versus control” value in assay [1] is recorded as “did not show significant differences in glycaemic control”. In assay [2], the “Maximal response to methoxamine” value was determined as 1.63±0.21 g increase tension and the “Potency of acetylcholine (pEC50)” value was found to be 5.37±0.40.

For the molecule `CCCc1cc(O)c2c(c1)OC(C)(C)[C@@H]1CCC(C)=C[C@@H]21` [THCV, tetrahydrocannabivarin], the “Thermic response to food” value was 0.67 and 0.91 and 1.26 in assay [3] (DIO mice, days 15-17, 0.3 mg·kg−1 p.o., Hour 0.22); 1.78 and 1.70 and 1.98 in assay [3] (DIO mice, days 15-17, 0.3 mg·kg−1 p.o., Hour 0.44); 2.30 and 2.06 and 2.49 in assay [3] (DIO mice, days 15-17, 0.3 mg·kg−1 p.o., Hour 0.67); 2.51 and 2.42 in assay [3] (DIO mice, days 15-17, 0.3 mg·kg−1 p.o., Hour 0.89); 2.51 and 2.74 and 2.64 in assay [3] (DIO mice, days 15-17, 0.3 mg·kg−1 p.o., Hour 1.11); 2.50 and 2.82 and 2.67 in assay [3] (DIO mice, days 15-17, 0.3 mg·kg−1 p.o., Hour 1.33). The “Thermic response to food” value in assay [3] (DIO mice, days 15-17, 0.3 mg·kg−1 p.o., Hour 1.56) was 2.53 and 2.81 and 3.13; in assay [3] (DIO mice, days 15-17, 0.3 mg·kg−1 p.o., Hour 1.78) it was 2.54 and 2.76 and 3.31; in assay [3] (DIO mice, days 15-17, 0.3 mg·kg−1 p.o., Hour 2.00), 2.45 and 2.62 and 3.18; in assay [3] (DIO mice, days 15-17, 0.3 mg·kg−1 p.o., Hour 2.22), 2.61 and 2.74 and 3.44; in assay [3] (DIO mice, days 15-17, 0.3 mg·kg−1 p.o., Hour 2.44), 2.71 and 2.74 and 3.18; in assay [3] (DIO mice, days 15-17, 0.3 mg·kg−1 p.o., Hour 2.67), 2.66 and 2.83 and 3.10. Also, the “Thermic response to food” value in assay [3] (DIO mice, days 15-17, 0.3 mg·kg−1 p.o., Hour 2.89) is 2.71 and 3.01 and 3.09; in assay [3] (DIO mice, days 15-17, 0.3 mg·kg−1 p.o., Hour 3.11) it was 2.68 and 3.16 and 3.02; in assay [3] (DIO mice, days 15-17, 0.3 mg·kg−1 p.o., Hour 3.33) it was 2.68 and 3.34 and 3.04; in assay [3] (DIO mice, days 15-17, 0.3 mg·kg−1 p.o., Hour 4.00), 2.70 and 3.49 and 3.13; in assay [3] (mouse, in vivo, po), 2.61 and 3.49 and 3.02 and 2.43 and 3.48 and 3.03. Besides, the “Thermic response to food, effect in words” value in assay [3] (DIO mice, days 15-17, chronic-study doses (rimonabant 10, pure THCV 0.3 mg·kg−1 p.o.)) is given as “have an affect over 2 h”.
